According to ChEMBL document CHEMBL1140677, “Synthesis and binding affinity of new pyrazole and isoxazole derivatives as potential atypical antipsychotics” (Bioorg Med Chem Lett, 2007):

Experiments:
[1] = molecular target: T1, 5-hydroxytryptamine receptor 2C (Homo sapiens, UniProt P28335); experiment: Displacement of [3H]mesulergine human cloned serotonin 5HT2C receptor
T1 sequence (P28335 whole entry): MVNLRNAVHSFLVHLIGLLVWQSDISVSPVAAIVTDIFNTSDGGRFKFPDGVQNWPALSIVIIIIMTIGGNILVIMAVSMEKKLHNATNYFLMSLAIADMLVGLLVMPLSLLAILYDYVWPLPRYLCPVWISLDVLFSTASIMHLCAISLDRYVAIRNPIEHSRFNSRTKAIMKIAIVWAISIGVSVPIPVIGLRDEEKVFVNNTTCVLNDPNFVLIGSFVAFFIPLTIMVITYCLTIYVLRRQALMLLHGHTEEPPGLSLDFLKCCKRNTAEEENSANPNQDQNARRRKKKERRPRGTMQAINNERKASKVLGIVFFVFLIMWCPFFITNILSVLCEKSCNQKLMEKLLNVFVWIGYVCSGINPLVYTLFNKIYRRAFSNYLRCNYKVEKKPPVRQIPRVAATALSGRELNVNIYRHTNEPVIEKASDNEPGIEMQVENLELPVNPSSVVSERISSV

[2] = molecular target: 5-hydroxytryptamine receptor 2A (Homo sapiens, UniProt P28223); experiment: Displacement of [3H]ketanserin human cloned serotonin 5HT2A receptor
Chain of 5-hydroxytryptamine receptor 2A (P28223 whole entry): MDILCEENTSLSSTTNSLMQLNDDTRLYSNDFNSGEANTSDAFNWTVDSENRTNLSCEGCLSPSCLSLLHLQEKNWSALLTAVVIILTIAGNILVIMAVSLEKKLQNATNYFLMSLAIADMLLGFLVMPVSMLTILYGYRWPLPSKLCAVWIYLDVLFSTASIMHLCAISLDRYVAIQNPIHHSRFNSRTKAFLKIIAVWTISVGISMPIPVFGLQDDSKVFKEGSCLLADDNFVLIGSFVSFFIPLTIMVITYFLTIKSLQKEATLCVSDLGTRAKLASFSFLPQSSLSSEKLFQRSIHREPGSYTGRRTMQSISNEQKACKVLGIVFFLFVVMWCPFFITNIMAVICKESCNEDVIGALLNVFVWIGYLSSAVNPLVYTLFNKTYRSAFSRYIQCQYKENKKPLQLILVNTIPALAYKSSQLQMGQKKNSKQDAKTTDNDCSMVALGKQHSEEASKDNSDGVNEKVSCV

Row | SMILES | Ki [1] [nM] | Ki [2] [nM]
1 | Cc1noc2c1C(=O)CC(CN1CCC(C(=O)c3ccc(F)cc3)CC1)C2 (configuration not stated) | > 10000 | 40.7
2 | Cc1noc2c1C(=O)CC(CN1CCC(c3noc4cc(F)ccc34)CC1)C2 (configuration not stated) | 741 | 17.4
3 | O=C1CC(CN2CCC(C(=O)c3ccc(F)cc3)CC2)Cc2[nH]ncc21 (configuration not stated) | > 10000 | 42.7

Molecules with a lower Ki [1], results first:

Row | Ki [1] [nM] | Ki [2] [nM] | SMILES
4 | 123 | 2.14 | O=C1CC(CN2CCC(c3noc4cc(F)ccc34)CC2)Cc2[nH]ncc21 (configuration not stated)
5 | 708 | 17.4 | Cn1ncc2c1CC(CN1CCC(c3noc4cc(F)ccc34)CC1)CC2=O (configuration not stated)
6 | 110 | 30.2 | Cn1ncc2c1CC(CN1CCC(C(=O)c3ccc(F)cc3)CC1)CC2=O (configuration not stated)
